Data as given in the supplement of paper PMC4862054.

Assays:
Conditions in all cases: incubation time: 72 h
[1] = tested on: BT-474; assay: normalised response (% of control), CellTiter-Glo; higher = more viable cells (100 = DMSO, 0 = benzethonium chloride kill control)
How it was run: (§1)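 Breast cancer cell lines, seeded at 20 µl suspension per well, were incubated for 72 h in 384-well plates containing compound at 5 concentrations. These concentrations rose in 10-fold steps over a 10,000-fold range set for each compound. CellTox Green fluorescence (485/520 nm) was read, then CellTiter-Glo luminescence after 10 min at room temperature, and each plate was normalised to 0.1 % DMSO (100) and a positive kill control (0). Values are normalised signals, each at one concentration.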

[2] = tested on: BT-549; assay: as above
How it was run: as §1

[3] = tested on: CAL-120; assay: as above
How it was run: as §1

[4] = tested on: CAL-148; assay: as above
How it was run: as §1

[5] = tested on: CAL-51; assay: as above
How it was run: as §1

[6] = tested on: CAL-85-1; assay: as above
How it was run: as §1

[7] = tested on: DU-4475; assay: as above
How it was run: as §1

[8] = tested on: HCC1143; assay: as above
How it was run: as §1

[9] = tested on: HCC1599; assay: as above
How it was run: as §1

[10] = tested on: HCC1937; assay: as above
How it was run: as §1

[11] = tested on: HDQ-P1; assay: as above
How it was run: as §1

[12] = tested on: Hs578T; assay: as above
How it was run: as §1

[13] = tested on: MCF-10A; assay: as above
How it was run: as §1

[14] = tested on: MDA-MB-231; assay: as above
How it was run: as §1

[15] = tested on: MDA-MB-436; assay: as above
How it was run: as §1

[16] = tested on: MDA-MB-453; assay: as above
How it was run: as §1

[17] = tested on: MDA-MB-468; assay: as above
How it was run: as §1

[18] = tested on: MFM-223; assay: as above
How it was run: as §1

[19] = tested on: SK-BR-3; assay: as above
How it was run: as §1

[20] = tested on: BT-474; assay: normalised viability (% of control), CellTiter-Blue; higher = more viable cells (100 = DMSO, 0 = benzethonium chloride kill control)
How it was run: (§2)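 Seeded at 20 µl suspension per well onto compound-loaded 384-well plates, breast cancer cell lines were incubated 72 h. CellTiter-Blue fluorescence at 560/590 nm was then read, with each plate normalised to vehicle (100) and a positive kill control (0). Normalised viability is reported at a single listed concentration of the series.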

[21] = tested on: BT-549; assay: as above
How it was run: as §2

[22] = tested on: CAL-120; assay: as above
How it was run: as §2

[23] = tested on: CAL-148; assay: as above
How it was run: as §2

[24] = tested on: CAL-51; assay: as above
How it was run: as §2

[25] = tested on: CAL-85-1; assay: as above
How it was run: as §2

[26] = tested on: DU-4475; assay: as above
How it was run: as §2

[27] = tested on: HCC1143; assay: as above
How it was run: as §2

[28] = tested on: HCC1599; assay: as above
How it was run: as §2

[29] = tested on: HCC1937; assay: as above
How it was run: as §2

[30] = tested on: HDQ-P1; assay: as above
How it was run: as §2

[31] = tested on: Hs578T; assay: as above
How it was run: as §2

[32] = tested on: MDA-MB-231; assay: as above
How it was run: as §2

[33] = tested on: MDA-MB-436; assay: as above
How it was run: as §2

[34] = tested on: MDA-MB-453; assay: as above
How it was run: as §2

[35] = tested on: MDA-MB-468; assay: as above
How it was run: as §2

[36] = tested on: MFM-223; assay: as above
How it was run: as §2

[37] = tested on: SK-BR-3; assay: as above
How it was run: as §2

SMILES	normalised response [1] [%]	normalised response [2] [%]	normalised response [3] [%]	normalised response [4] [%]	normalised response [5] [%]	normalised response [6] [%]	normalised response [7] [%]	normalised response [8] [%]	normalised response [9] [%]	normalised response [10] [%]	normalised response [11] [%]	normalised response [12] [%]	normalised response [13] [%]	normalised response [14] [%]	normalised response [15] [%]	normalised response [16] [%]	normalised response [17] [%]	normalised response [18] [%]	normalised response [19] [%]	normalised viability [20] [%]	normalised viability [21] [%]	normalised viability [22] [%]	normalised viability [23] [%]	normalised viability [24] [%]	normalised viability [25] [%]	normalised viability [26] [%]	normalised viability [27] [%]	normalised viability [28] [%]	normalised viability [29] [%]	normalised viability [30] [%]	normalised viability [31] [%]	normalised viability [32] [%]	normalised viability [33] [%]	normalised viability [34] [%]	normalised viability [35] [%]	normalised viability [36] [%]	normalised viability [37] [%]
CO[C@@H]1[C@H](N(C)C(=O)c2ccccc2)C[C@H]2O[C@]1(C)n1c3ccccc3c3c4c(c5c6ccccc6n2c5c31)C(=O)NC4 [Midostaurin] (1 nM)	97.3	101	97.2	103	104	104	94	101	109	93.5	91.2	96.8	93.4	107	83	92.5	106	100	102	99.7	104	113	119	96.4	112	100	129	94.2	132	108	104	95.3	98.2	94.3	99.5	108	109
C=CCn1c(=O)c2cnc(Nc3ccc(N4CCN(C)CC4)cc3)nc2n1-c1cccc(C(C)(C)O)n1 [MK1775] (1 nM)	94.4	101	92.9	87.4	114	101	96.6	91.4	105	97.9	87.7	95.8	80.6	90.5	85.8	90.2	95.2	85.6	78.3	90.5	107	83.5	99.8	89	78.4	86.6	104	103	106	84.2	106	95.2	97.9	104	105	94.8	92.9
C/C(=C\c1csc(C)n1)[C@@H]1C[C@@H]2O[C@]2(C)CCC[C@H](C)[C@H](O)[C@@H](C)C(=O)C(C)(C)[C@@H](O)CC(=O)N1 [Ixabepilone] (0.1 nM)	104	98.8	95.5	99.3	80	97.6	101	98.5	115	98	100	100	107	103	105	127	104	103	108	90.4	90.8	78.8	105	110	84	107	80.9	97.3	89.2	97.2	90	99.1	104	93.5	86.7	78.8	79.6
